{"source": "patent US20250215403A1", "about": "“Compositions and Methods for Cardiac Tissue Regeneration” (Temple University - Of The Commonwealth System Of Higher …, priority 2022, published 2025)", "molecules": {"B1": {"name": "PSPH: modRNA encoding phosphoserine phosphatase (ORF SEQ ID NO: 5) (nucleic acid)", "DNA": "ATGGTCTCCCACTCAGAGCTGAGGAAGCTCTTCTGTTCAGCGGATGCAGTGTGCTTTGATGTTGATAGCACCGTCATCAGAGAAGAAGGAATCGATGAGCTGGCCAAATTCTGTGGTGTGGAGGCCGCAGTGTCTGAAATGACACGGAGAGCCATGGGAGGAGCATTGCCTTTTAAAGACGCGCTCACTCAGCGCCTGGCACTGATCCAGCCCTCCAGGGATCAAGTCCAGAGGCTCCTAGCTGAGCACCCGCCACATCTGACTCCTGGCATAAGGGAGCTGGTAAGCCGCCTCCAGGAGCGTAATGTCCAGGTGTTCCTCATCTCTGGTGGCTTTCGGAGCATTGTGGAGCACGTTGCTGCAAAGCTCAATATCCCAACAACCAATGTGTTTGCCAATAGGCTGAAGTTCTACTTTAATGGTGAGTACGCAGGTTTTGATGAGATGCAGCCGACAGCCGAGTCGGGTGGGAAAGGAAAGGTTATTCGGTTTTTAAAGGAAAAATTTCACTTTAAGAAAATAATCATGATTGGAGATGGAGCTACGGACATGGAAGCCTGTCCTCCTGCTGATGCTTTCATTGGCTTTGGAGGCAATGTGATCAGGCAGCAGGTTAAGGACAACGCCAAGTGGTACATCACTGACTTCGTGGAGCTGCTGGGAGAACTGGAGGAGTGA", "modifications": "modRNA"}}, "key": {"cardiomyocytes (CM) [1]": {"test_system": "cardiomyocytes (CM)", "assay": "Mouse MI model: immunostaining of heart sections for CM cell cycle markers (ki67, pH3, BrdU, Aurora B)", "format": "in vivo", "settings": "SSP gene modRNA delivery; 7 days post-MI", "procedure": "(§1) All surgical and experimental procedures with mice were performed in accordance with protocols approved by Institutional Animal Care and Use Committees at Temple University Animal Care and Use Committee (IACUC). C57BL6 or CM-specific MADM mice (8-12-weeks-old) were anesthetized with isoflurane. MI was induced by permanent ligation of the LAD, as previously described (Garikipati, V. N. S., et al., 2019, Nature Communications, 10:4317). Briefly, the left thoracic region was shaved and sterilized. After intubation, the heart was exposed through a left thoracotomy. A suture was placed to ligate the LAD. The thoracotomy and skin were sutured closed in layers. Excess air was removed from the thoracic cavity, and the mouse was removed from ventilation when normal breathing was established. In order to determine the effect of modRNA on cardiovascular outcome after MI, modRNAs (100 μg/heart) were injected into the infarct zone immediately after LAD ligation (Magadum A., et al., Circulation. 2020, 141 (15): 1249-1265). For examination of heart histology, hearts were collected at the end of each study, quickly washed in PBS, weighed, and fixed in 4% PFA for cryo-sectioning and immunostainings. In all experiments, the surgeon was blinded to the treatment group. For assessment of heart histology, hearts were collected at the end of each study. The hearts were excised, briefly washed in PBS, perfused with perfusion buffer, weighed and fixed in 4% PFA at 4° C. overnight. The heart blocks were transverse sectioned at 6-8 μm using cryostat. The heart sections were further processed for histological evaluation using immunostaining (see below) or histological scar staining using Masson's trichrome staining kit (Sigma) according to standard procedures. Measuring the ratio of heart weight to body weight was done using a scale. This ratio was calculated as the heart tissue weight relative to the mouse total body weight in grams (g).\nMice were injected with AAV9-GFP or AAV9-YAP1-shRNA (GeneCopoeia) through retro-orbital injection 7 days before LAD. A total of 5×10^11 viral genomes (50 μl total volume delivered) was injected per mouse. The level of YAP1 inhibition was determined at the mRNA level by qPCR 14 days post injection.\nMice hearts were harvested, weighed, and fixed in 4% PFA/PBS overnight on shaker and then washed with PBS for 1 hour and incubated in 30% sucrose/PBS at 4° C. for 12-18 hours. Hearts were then fixed in OCT and frozen at −80° C. (Magadum A., et al., Circulation. 2020, 141 (15): 1249-1265). Transverse heart sections (6-8 μm) were made using a cryostat. Frozen sections were rehydrated in PBS for 5-10 min followed by permeabilization with PBS with 0.1% Triton™ X100 (PBST) for 7-8 min. Heart sections were then treated with 3% H2O2 for 5 min and washed (3×5 min) with PBST. The samples were then blocked with PBS+10% Donkey normal serum+0.1% Triton™ X100 (PBSST) for 1 hour at room temperature. Primary antibodies (see complete list of primary antibodies used for this Example in Table 2 below) diluted in PBST were added and incubated overnight at 4° C. Slides were washed with PBST (3×5 min) followed by incubation with a secondary antibody (Invitrogen, 1:200) diluted in PBST for 90-120 min at room temperature. The samples were further washed with PBST (3×5 min) and stained with DAPI or Hoechst 33342 (1 μg/ml) diluted in PBST for 7 min. After being washed with PBST (3×7 min) and tap water (1×5 min) slides were mounted with mounting medium (VECTASHIELD®) for imaging (Magadum A., et al., Circulation. 2020, 141 (15): 1249-1265). Stained slides were stored at 4° C. All staining was performed on 4-8 hearts/group, with 2-3 sections/heart. For immunostaining with wheat germ agglutinin (WGA) for CM size quantification, images were captured at 40× magnification, and ImageJ was used to determine the area of each cell. […]"}, "cardiomyocytes (CM) [2]": {"test_system": "cardiomyocytes (CM)", "assay": "Mouse MI model: TUNEL staining of CM apoptosis", "format": "in vivo", "settings": "SSP gene modRNA delivery; 7 days post-MI", "procedure": "as §1\nMice hearts were harvested, weighed, and fixed in 4% PFA/PBS overnight on shaker and then washed with PBS for 1 hour and incubated in 30% sucrose/PBS at 4° C. for 12-18 hours. Hearts were then fixed in OCT and frozen at −80° C. (Magadum A., et al., Circulation. 2020, 141 (15): 1249-1265). Transverse heart sections (6-8 μm) were made using a cryostat. […] For immunostaining with wheat germ agglutinin (WGA) for CM size quantification, images were captured at 40× magnification, and ImageJ was used to determine the area of each cell. Quantitative analyses involved counting of multiple fields from 5-8 mouse hearts per group, and 3-4 sections/heart (˜50 cells per field assessed, for a total ˜250 cells per sample). […] BrdU positive CMs were counted in multiple fields from three independent samples per group and 3 sections/heart. […]"}}, "data": [{"molecule": "PHGDH: modRNA encoding phosphoglycerate dehydrogenase (ORF SEQ ID NO: 6)", "values": [{"measurement": "CM cell cycle (pH3+ CMs)", "setting": "cardiomyocytes (CM) [1]", "value": "partially induced"}, {"measurement": "CM apoptosis (TUNEL+ CMs)", "setting": "cardiomyocytes (CM) [2]", "value": "inhibited"}]}, {"molecule": "B1", "values": [{"measurement": "CM cell cycle (pH3+ CMs)", "setting": "cardiomyocytes (CM) [1]", "value": "partially induced"}, {"measurement": "CM apoptosis (TUNEL+ CMs)", "setting": "cardiomyocytes (CM) [2]", "value": "inhibited"}]}]}
